# Data reported in ChEMBL document CHEMBL5329222, “Discovery of novel tubulin CBSI (R)-9k from the indanone scaffold for the treatment of colorectal cancer” (RSC Med Chem, 2023).
# Active and inactive are the calls of the source. The calls are words filed in the database; no cut-off is given here.
# How the values were obtained:
# HeLa = assay: Growth inhibition of human HeLa cells incubated for 1.5 hrs by MTT assay; assay type: functional, cell-based
# A2780 = assay: Growth inhibition of human A2780 cells incubated for 1.5 hrs by MTT assay; assay type: functional, cell-based; settings: A2780, 1.5 h
# HCT-116 [1] = assay: Growth inhibition of human HCT-116 cells incubated for 1.5 hrs by MTT assay; assay type: functional, cell-based; settings: HCT-116, 1.5 h
# Tubulin (Bos taurus) [2] = target: T1, Tubulin (Bos taurus) (UniProt Q6B856+Q862L2+Q862F3); assay: (§1) Inhibition of bovine brain tubulin polymerization measured at 2 to 20 mins by spectrophotometer analysis; settings: time 2-20 min
# Tubulin = Tubulin (Bos taurus, UniProt Q6B856+Q862L2+Q862F3); assay: as §1
# Tubulin (Bos taurus) [3] = target: T1, Tubulin (Bos taurus); assay: Inhibition of bovine brain tubulin polymerization at 6 uM measured at 2 to 20 mins by spectrophotometer analysis relative to control; settings: time 2-20 min
# [4] = target: Tubulin beta (Homo sapiens) (UniProt P68371+Q9H4B7+Q13509+P04350+Q3ZCM7+P07437+Q13885+Q9BVA1+Q9BUF5+A6NNZ2); assay: Binding affinity to beta-tubulin colchicine binding site in human HCT-116 cells assessed as inhibition of EBI-beta-tubulin adduct band formation at 1 to 25 uM preincubated for 2 hrs followed by EBI addition measured after 1.5 hrs by EBI competition based Western blotting analysis; assay type: cell-based; settings: dose 1-25 µM, time 3.5 hrs
# HCT-116 [5] = assay: Induction of cell cycle arrest in human HCT-116 cells assessed as accumulation of cells at G1 phase at 1.5 uM incubated for 24 hrs by flow cytometry analysis (reference value: 68.74%); assay type: functional
# HCT-116 [6] = assay: Induction of cell cycle arrest in human HCT-116 cells assessed as accumulation of cells at G1 phase at 3 uM incubated for 24 hrs by flow cytometry analysis (reference value: 68.74%); assay type: functional
# HCT-116 [7] = assay: Induction of cell cycle arrest in human HCT-116 cells assessed as accumulation of cells at G1 phase at 6 uM incubated for 24 hrs by flow cytometry analysis (reference value: 68.74%); assay type: functional
# HCT-116 [8] = assay: Induction of cell cycle arrest in human HCT-116 cells assessed as accumulation of cells at G2/M phase at 1.5 uM incubated for 24 hrs by flow cytometry analysis (reference value: 18.25%); assay type: functional
# HCT-116 [9] = assay: Induction of cell cycle arrest in human HCT-116 cells assessed as accumulation of cells at G2/M phase at 3 uM incubated for 24 hrs by flow cytometry analysis (reference value: 18.25%); assay type: functional
# HCT-116 [10] = assay: Induction of cell cycle arrest in human HCT-116 cells assessed as accumulation of cells at G2 phase at 1.5 uM incubated for 24 hrs by flow cytometry analysis (reference value: 18.25%); assay type: functional
# HCT-116 [11] = assay: Induction of cell cycle arrest in human HCT-116 cells assessed as accumulation of cells at G2 phase at 6 uM incubated for 24 hrs by flow cytometry analysis (reference value: 18.25%); assay type: functional
# HCT-116 [12] = assay: Induction of cell cycle arrest in human HCT-116 cells assessed as accumulation of cells at S phase at 1.5 uM incubated for 24 hrs by flow cytometry analysis (reference value: 3.61%); assay type: functional
# HCT-116 [13] = assay: Induction of cell cycle arrest in human HCT-116 cells assessed as accumulation of cells at S phase at 3 uM incubated for 24 hrs by flow cytometry analysis (reference value: 3.61%); assay type: functional
# HCT-116 [14] = assay: Induction of cell cycle arrest in human HCT-116 cells assessed as accumulation of cells at S phase at 6 uM incubated for 24 hrs by flow cytometry analysis (reference value: 3.61%); assay type: functional
# HCT-116 [15] = assay: Induction of apoptosis in human HCT-116 cells assessed as viable cells at 3 uM incubated for 24 hrs by annexin V-FITC/7-AAD staining based flow cytometry analysis (reference value: 90.19%); assay type: functional; settings: read-out: Activity
# HCT-116 [16] = assay: Induction of apoptosis in human HCT-116 cells assessed as viable cells at 6 uM incubated for 24 hrs by annexin V-FITC/7-AAD staining based flow cytometry analysis (reference value: 90.19%); assay type: functional; settings: read-out: Activity
# HCT-116 [17] = assay: Induction of apoptosis in human HCT-116 cells assessed as early apoptotic cells at 1.5 uM incubated for 24 hrs by annexin V-FITC/7-AAD staining based flow cytometry analysis (reference value: 5.82%); assay type: functional
# HCT-116 [18] = assay: Induction of apoptosis in human HCT-116 cells assessed as early apoptotic cells at 6 uM incubated for 24 hrs by annexin V-FITC/7-AAD staining based flow cytometry analysis (reference value: 5.82%); assay type: functional
# HCT-116 [19] = assay: Induction of apoptosis in human HCT-116 cells assessed as late apoptotic cells at 1.5 uM incubated for 24 hrs by annexin V-FITC/7-AAD staining based flow cytometry analysis (reference value: 1.53%); assay type: functional
# HCT-116 [20] = assay: Induction of apoptosis in human HCT-116 cells assessed as late apoptotic cells at 3 uM incubated for 24 hrs by annexin V-FITC/7-AAD staining based flow cytometry analysis (reference value: 1.53%); assay type: functional
# HCT-116 [21] = assay: Induction of apoptosis in human HCT-116 cells assessed as late apoptotic cells at 6 uM incubated for 24 hrs by annexin V-FITC/7-AAD staining based flow cytometry analysis (reference value: 1.53%); assay type: functional
# HCT-116 [22] = assay: Induction of apoptosis in human HCT-116 cells assessed as necrotic cells at 1.5 uM incubated for 24 hrs by annexin V-FITC/7-AAD staining based flow cytometry analysis (reference value: 2.46%); assay type: functional
# HCT-116 [23] = assay: Induction of apoptosis in human HCT-116 cells assessed as necrotic cells at 3 uM incubated for 24 hrs by annexin V-FITC/7-AAD staining based flow cytometry analysis (reference value: 2.46%); assay type: functional
# HCT-116 [24] = assay: Induction of apoptosis in human HCT-116 cells assessed as necrotic cells at 6 uM incubated for 24 hrs by annexin V-FITC/7-AAD staining based flow cytometry analysis (reference value: 2.46%); assay type: functional
# HCT-116 [25] = assay: Inhibition of colony formation in human HCT-116 cells incubated for 48 hrs by crystal violet staining based analysis; assay type: functional, cell-based; settings: dose 0.1-2 µM
# HCT-116 [26] = assay: Antiproliferative activity against human HCT-116 cells assessed as inhibition of cell growth at 2 uM incubated for 2 weeks by […]; assay type: functional, cell-based
# HCT-116 [27] = assay: Inhibition of colony formation in human HCT-116 cells at 0.1 uM incubated for 48 hrs by crystal violet staining based analysis; assay type: functional; settings: HCT-116, 48 h, values are per cent of control
# HCT-116 [28] = assay: Inhibition of cell migration in human HCT-116 cells at 1 uM measured for 24 hrs by scratch wound healing assay; assay type: functional
# HCT-116 [29] = assay: Inhibition of cell migration in human HCT-116 cells measured for 24 hrs by scratch wound healing assay; assay type: functional, cell-based; settings: dose 0.5-5 µM
# [30] = Cytotoxicity against human HUVEC cells assessed as inhibition of cell growth incubated 1.5 hrs by MTT assay; assay type: toxicity, cell-based
# [31] = Potency index, ratio of test compound IC50 to colchicine IC50 for cytotoxicity against human HUVEC cells assessed as inhibition of cell growth incubated 1.5 hrs by MTT assay; assay type: toxicity, cell-based; settings: read-out: Ratio IC50
# [32] = Potency index, ratio of test compound IC50 to 5-fluorouracil IC50 for cytotoxicity against human HUVEC cells assessed as inhibition of cell growth incubated 1.5 hrs by MTT assay; assay type: toxicity, cell-based; settings: read-out: Ratio IC50
smiles,measurement,setting,value
CCOc1ccc([C@H]2CC(=O)c3cc(OC)c(OC)c(OC)c32)cc1F,IC50,HeLa,380 nM
same,IC50,A2780,590 nM
same,IC50,HCT-116 [1],260 nM
same,inhibition,Tubulin (Bos taurus) [2],Dose-Dependent Effect
same,IC50,Tubulin,6100 nM
same,inhibition,Tubulin (Bos taurus) [3],54%
same,Activity,[4],Active
same,Activity,HCT-116 [5],65.69%
same,Activity,HCT-116 [6],62.85%
same,Activity,HCT-116 [7],35.2%
same,Activity,HCT-116 [8],24.41%
same,Activity,HCT-116 [9],28.73%
same,Activity,HCT-116 [10],24.4%
same,Activity,HCT-116 [11],47.34%
same,Activity,HCT-116 [12],7.57%
same,Activity,HCT-116 [13],6.6%
same,Activity,HCT-116 [14],5.1%
same,viability at 3 µM,HCT-116 [15],73%
same,viability at 6 µM,HCT-116 [16],60.5%
same,Activity,HCT-116 [17],8.12%
same,Activity,HCT-116 [18],21.2%
same,Activity,HCT-116 [19],2.85%
same,Activity,HCT-116 [20],5.07%
same,Activity,HCT-116 [21],13.77%
same,Activity,HCT-116 [22],2.28%
same,Activity,HCT-116 [23],3.2%
same,Activity,HCT-116 [24],4.48%
same,inhibition,HCT-116 [25],Dose-Dependent Effect
same,Activity,HCT-116 [26],Active
same,"growth, % of control at 0.1 µM",HCT-116 [27],57.9%
same,inhibition at 1 µM,HCT-116 [28],43%
same,inhibition,HCT-116 [29],Dose-Dependent Effect
same,IC50 at 1.5 h,[30],15000 nM
same,selectivity ratio at 1.5 h,[31],35
same,selectivity ratio at 1.5 h,[32],1.6
